These results are taken from patent publication US6770279B1, “TNFα antagonists and cyclosporin in therapy of rheumatoid arthritis” (The Kennedy Institute of Rheumatology, priority 1992, dated 2004).

The subject of experiment [1] is collagen type II induced arthritis in the DBA/1 mouse. Nature of the experiment: Collagen type II induced arthritis: limb involvement (number of arthritic limbs). It is filed as in vivo. Conditions: Example 2B; anti-TNF mAb 300 μg; methylprednisolone acetate 2 mg/kg. As to the method:
Male DBA/1 mice were immunized intradermally at 8-12 weeks of age with 100 μg type II collagen emulsified in Freund's complete adjuvant (Difco Laboratories, East Molsey, UK). Day one of arthritis was considered to be the day that erythema and/or swelling was first observed in one or more limbs. Arthritis became clinically evident around 30 days after immunization with type II collagen. For each mouse, treatment was started on the first day that arthritis was observed and continued over a 10 day period, after which the mice were sacrificed and joints were processed for histology. Monoclonal antibody (mAb) treatment was administered on days 1, 4, and 7. For anti-TNF antibody, TN3-19.12, a neutralizing hamster IgG1 anti-TNFα/β monoclonal antibody (mAb), was used (Sheehan, K. C. et al., J. Immunology 142:3884-3893 (1989)). The isotype control was L2. The anti-TNF antibody and the isotype control were provided by R. Schreiber, Washington University Medical School (St. Louis, Mo., USA), in conjunction with Celltech (Slough, UK). The cell-depleting anti-CD4 monoclonal antibody (rat IgG2b) consisted of a 1:1 mixture of YTS 191.1.2 and YTA 3.1.2, provided by H. Waldmann (University of Cambridge, UK) (Galfre, G. et al., Nature 277: 131-133 (1979); Cobbold, S. P. et al., Nature 312: 548-551 (1984); Qin, S. et al., European J. Immunology 17:1159-1165 (1987)).
In collagen-induced arthritis, as in RA, it is usual for additional limbs to become involved after the initial appearance of clinical disease and new limb involvement is an important indicator of the progression of the disease. […]
Male DBA/1 mice were immunized intradermally with 100 μg of bovine type II collagen emulsified in complete Freund's adjuvant (Difco Laboratories, East Molsey, UK). […] Arthritis was monitored for clinical score and paw swelling (measured with calipers) for 10 days, after which the mice were sacrificed and joints were processed for histology. […]

For experiment [2] the test system is unchanged. Description: Collagen type II induced arthritis: clinical score. Type of experiment: in vivo. Conditions: Example 7B. As to the method: Male DBA/1 mice were immunized intradermally with 100 μg of bovine type II collagen emulsified in complete Freund's adjuvant (Difco Laboratories, East Molsey, UK). The mean day of onset of arthritis was approximately one month after immunization. […] Arthritis was monitored for paw-swelling (measured with calipers) for 10 days, after which the mice were sacrificed and joints were processed for histology.
Clinical Score was assessed on the following scale: 0=normal; 1=slight swelling and/or erythema; 2=pronounced edematous swelling; and 3=joint rigidity. […]
Male DBA/1 mice were immunized intradermally with 100 μg of bovine type II collagen emulsified in complete Freund's adjuvant (Difco Laboratories, East Molsey, UK). […] Arthritis was monitored for paw swelling (measured with calipers) for 10 days, after which the mice were sacrificed and joints were processed for histology.
Clinical score was assessed on the following scale: 0=normal; 1=slight swelling and/or erythema; 2=pronounced edematous swelling, and 3=joint rigidity. […]
Male DBA/1 mice were immunized intradermally with 100 μg of bovine type II collagen emulsified in complete Freund's adjuvant (Difco Laboratories, East Molsey, UK). […] Arthritis was monitored for paw swelling (measured with calipers) for 10 days, after which the mice were sacrificed and joints were processed for histology. […]

The test system of experiment [3] is TNF expression in the joints. Description: Immunohistochemical studies of TNF expression in joints. Type of experiment: in vivo, mouse. Conditions: preliminary immunohistochemical studies; mice with collagen-induced arthritis. An excerpt:
These findings indicate that rolipram is effective in established collagen-induced arthritis and may therefore be useful in the treatment of RA.

Take `CC(=O)OCC(=O)[C@@]1(O)CC[C@H]2[C@@H]3C[C@H](C)C4=CC(=O)C=C[C@]4(C)[C@H]3[C@@H](O)C[C@@]21C` [Methylprednisolone acetate, methylprednisolone acetate]: in experiment [1], the “Increase (%) in limbs affected” value came out at 33%, the “Limbs Affected (mean ± SEM) Day 1” value is 1.00 ± 0.00 and the “Limbs Affected (mean ± SEM) Day 10” value stood at 1.50 ± 0.22.

On to `COc1ccc(C2CNC(=O)C2)cc1OC1CCCC1` (stereo not drawn) [rolipram], for which the “mean clinical score on day 10 (±SE)” value in experiment [2] (rolipram 3 mg/kg twice daily, anti-TNF mAb 300 μg days 1, 4, 7, maximum score 12) worked out at 1.0±0.3. Besides, the “severity of arthritis (clinical score)” value in experiment [2] (rolipram 3, 5 or 10 mg/kg i.p. twice daily, vs Cremophor EL) is listed as “significant reduction in the severity of arthritis”. For the same compound, the “TNF expression in the joints” value in experiment [3] was “down-regulation of TNF expression in the joints”.
